How the values were obtained:
[1] = Cascade Impactor (Andersen) test, MDI actuator for stand-alone (handheld) use; assay type: physicochemical
Description: The particle size of an inhalation drug may be measured by an instrument called a Cascade Impactor, which consists of multiple discs. The size of the discs is graduated to properly determine the size of the particulate matter at various stages of the Cascade Impactor, which each represent the drug delivery to different portions of the entire respiratory tract. The Cascade Impactor collects samples of the drug in a graduated manner on each disc such that the average particle size of the collected drugs can be measured for each stage.
As discussed above, the particle size of an inhalation drug, namely the API, can be measured by a Cascade Impactor (Westech Instruments), which consists of multiple stages (0-7). The particle sizes at each stage are listed in Table 8, which represents the drug delivery to different portions of the entire respiratory tract using a stand-alone MDI actuator, for example actuator 500, discussed above.
As described above, the disclosed MDI actuator nozzles may include an inner diameter that is optimized to dispense fine API particle sizes, such as API particles having a diameter of about 1.1 μm or less. Table 12, below, outlines a study of the amount percentage (%) of fine API particles having particle diameters of less than about 1.1 μm versus nozzle inner diameter size of the disclosed MDI actuators, for example MDI actuator 500. […] The general components of MDI actuator 500 was utilized, but different nozzle inner diameter sizes were tested in this study. In particular, 3 different MDI actuators were tested: (1) MDI actuator having 0.42 mm nozzle inner diameter (“MDI Actuator A”), (2) MDI actuator having 0.28 mm nozzle inner diameter (“MDI Actuator B”), and (3) MDI actuator having 0.20 mm nozzle inner diameter (“MDI Actuator C”).

[2] = Estimated HCQ concentration in alveolar fluid (oral tablets, inhalation); set-up: species or system human
Method: The HCQ molecules in the plasma can penetrate capillaries outside the alveolar membrane to reach the alveolar lining fluid (“ALF”).
A similar analysis was performed for HCQ administered by inhalation.

[3] = In-line Cascade Impactor (Andersen) evaluation, MDI actuator through elbow connection and ventilator tubing; assay type: physicochemical; set-up: Delivered <1.1 mcm / Delivered <4.7 mcm: unit not given here; conditions: 5% EtOH; for Delivered <4.7 mcm: Plate 3~5
Method: An example of a ventilator device, for example ventilator device 1700A, was tested and compared to a self-administrable, handheld MDI to determine the target site delivery efficiency in the ventilator circuit as compared to the MDI delivery efficiency without the ventilator circuit (e.g. no elbow connector or ventilator tubing).
Prime HCQ valve by discharging a predetermined number of actuations to waste. Discharge 10 actuations with actuator H004B-a into the cascade impaction sampling apparatus through an elbow connection w/inner channel and an in-line tubing (55 cm long).
Prime HCQ valve by discharging a predetermined number of actuations to waste. Discharge 10 actuations with actuator H004B-c into the cascade impaction sampling apparatus through an elbow connection with an inner channel and an in-line tubing (55 cm long).
Prime HCQ valve by discharging a predetermined number of actuations to waste. […]

[4] = HCQ particles typically inhaled to treat asthma; cited from earlier work
[5] = set-up: species or system mice; conditions: mouse, in vivo, 10 min
Method: Mice can breathe the aerosol of drug products. A breathing tank is used for mice to breathe the aerosol of the drug product, such as HCQ. The drug product is administered through the specially designed stainless steel breathing tank 1800, for example as shown in FIG. 18.
The exposure tank size is designed such that the total breathing volume of all eight mice during a 10-minute breathing treatment (1.8 L) is less than 10% of the tank size (21.5 L). The internal wall of the tank is electrically polished to minimize its adsorption of the study drug. Eight mice were mounted to the tank with four mice on each side using small animal restraints. At the start of each treatment session, an effective amount of the drug was administered into pre-cleaned tank. A stirring fan installed inside the tank was set to promote circulation of the pharmaceutical agent. Specifically, the fan was set at 400 RPM in this study and turned on before the pharmaceutical agent was administered. Thirty seconds after the last spray (t=0 minute), eight mice were mounted to the inhalation chamber to breathe the air from inside the breathing tank for 10 minutes, and then were taken off the breathing tank. Samples from the mice were taken, starting immediately after removal from the tank, to perform pharmacokinetic studies. […]

CCN(CCO)CCCC(C)Nc1ccnc2cc(Cl)ccc12 (centres unmarked) [HCQ, hydroxychloroquine]
EPM (6-filter; P6-F, <1.1 μm for Alveoli), Compared to strength (delivery rate) ([1]; Actuator A (nozzle 0.42 mm)): 21.6% | EPM (6-filter; P6-F, <1.1 μm for Alveoli), Compared to strength (delivery rate) ([1]; Actuator B (nozzle 0.28 mm)): 39.7% | EPM (6-filter; P6-F, <1.1 μm for Alveoli), Compared to strength (delivery rate) ([1]; Actuator C (nozzle 0.20 mm)): about 53.9% | Delivery Rate ([1]; Alveoli, <1.1 mcm, actuator O-0.20, 5% EtOH, 200 mcg): 44.5% | Delivery Rate ([1]; Alveoli, <1.1 mcm, actuator O-0.20, 5% EtOH, 200 mcg (Table 21)): 44.5% | Delivered <1.1 mcm ([1]; Alveoli, actuator O-0.20, 5% EtOH, 200 mcg): 89 | Delivered <1.1 mcm ([1]; Alveoli, actuator O-0.20, 5% EtOH, 200 mcg (Table 21)): 89 | Delivery Rate ([1]; Plate 3~5, <4.7 mcm, actuator O-0.20, 5% EtOH, 200 mcg): 50.7% | Delivered <4.7 mcm ([1]; Plate 3~5, actuator O-0.20, 5% EtOH, 200 mcg): 101.3 | estimated concentration of HCQ in alveolar fluid ([2]; after administration of HCQ by inhalation): up to 22 μM | estimated concentration of HCQ in alveolar fluid ([2]; oral tablets, Day-1 (800 mg dose, after 2nd 400 mg dose)): 0.45 µM | estimated concentration of HCQ in alveolar fluid ([2]; oral tablets, Day-1 after the 1st 400 mg dose): 0.23 µM | estimated concentration of HCQ in alveolar fluid ([2]; oral tablets, Day-2): 0.67 µM | estimated concentration of HCQ in alveolar fluid ([2]; oral tablets, Day-5 (total dose of 2,400 mg)): 1.3 µM | Delivery Rate ([3]; Alveoli, <1.1 mcm, in-Linc Tube (15 cm), HCQB-c, connection w/o inner channel, 200 mcg (#6)): 34.2% | Delivery Rate ([3]; Alveoli, <1.1 mcm, in-Line Tube (15 cm), HCQB-a, connection w/o inner channel, 200 mcg): 32.2% | Delivery Rate ([3]; Alveoli, <1.1 mcm, in-Line Tube (15 cm), HCQB-b, connection w/o inner channel, 200 mcg): 31.3% | Delivery Rate ([3]; Alveoli, <1.1 mcm, in-Line Tube (15 cm), HCQB-c, connection w/o inner channel, 200 mcg (#4)): 43.3% | Delivery Rate ([3]; Alveoli, <1.1 mcm, in-Line Tube (15 cm), HCQB-d, connection w/o inner channel, Ave, 200 mcg): 36.9% | Delivery Rate ([3]; Alveoli, <1.1 mcm, in-Line Tube (15 cm), HCQB-f, connection w/o inner channel, 200 mcg): 23.2% | Delivery Rate ([3]; Alveoli, <1.1 mcm, in-Line Tube (15 cm), HCQB-g, connection w/inner channel, 200 mcg): 34.0% | Delivery Rate ([3]; Alveoli, <1.1 mcm, in-Line Tube (15 cm), HCQB-g, connection w/o inner channel, 200 mcg): 31.5% | Delivery Rate ([3]; Alveoli, <1.1 mcm, in-Line Tube (15 cm), HCQB-h, connection w/ inner channel, 200 mcg): 35.9% | Delivery Rate ([3]; Alveoli, <1.1 mcm, in-Line Tube (15 cm), HCQB-h, connection w/o inner channel, 200 mcg): 31.1% | Delivery Rate ([3]; Alveoli, <1.1 mcm, in-Line Tube (15 cm), HCQB-i, connection w/inner channel, 200 mcg): 27.5% | Delivery Rate ([3]; Alveoli, <1.1 mcm, in-Line Tube (15 cm), HCQB-i, connection w/o inner channel, 200 mcg): 37.9% | Delivery Rate ([3]; Alveoli, <1.1 mcm, in-Line Tube (15 cm), HCQB-j, connection w/o inner channel, 200 mcg): 29.1% | Delivery Rate ([3]; Alveoli, <1.1 mcm, in-Line Tube (55 cm), HCQB-a, connection w/inner channel, 200 mcg): 19.3% | Delivery Rate ([3]; Alveoli, <1.1 mcm, in-Line Tube (55 cm), HCQB-b, connection w/inner channel, 200 mcg): 26.9% | Delivery Rate ([3]; Alveoli, <1.1 mcm, in-Line Tube (55 cm), HCQB-c, connection w/inner channel, Ave, 200 mcg): 37.9% | Delivery Rate ([3]; Alveoli, <1.1 mcm, in-Line Tube (55 cm), HCQB-d, connection w/inner channel, 200 mcg): 26.4% | Delivery Rate ([3]; Alveoli, <1.1 mcm, in-Line Tube (55 cm), HCQB-f, connection w/inner channel, Ave, 200 mcg): 34.7% | Delivery Rate ([3]; Alveoli, <1.1 mcm, in-Line Tube (55 cm), HCQB-j, connection w/ inner channel, 200 mcg): 30.3% | Delivered <1.1 mcm ([3]; Alveoli, in-Linc Tube (15 cm), HCQB-c, connection w/o inner channel, 200 mcg (#6)): 68.4 | Delivered <1.1 mcm ([3]; Alveoli, in-Line Tube (15 cm), HCQB-a, connection w/o inner channel, 200 mcg): 64.4 | Delivered <1.1 mcm ([3]; Alveoli, in-Line Tube (15 cm), HCQB-b, connection w/o inner channel, 200 mcg): 62.6 | Delivered <1.1 mcm ([3]; Alveoli, in-Line Tube (15 cm), HCQB-c, connection w/o inner channel, 200 mcg (#4)): 86.6 | Delivered <1.1 mcm ([3]; Alveoli, in-Line Tube (15 cm), HCQB-d, connection w/o inner channel, Ave, 200 mcg): 73.8 | Delivered <1.1 mcm ([3]; Alveoli, in-Line Tube (15 cm), HCQB-f, connection w/o inner channel, 200 mcg): 46.3 | Delivered <1.1 mcm ([3]; Alveoli, in-Line Tube (15 cm), HCQB-g, connection w/inner channel, 200 mcg): 68.0 | Delivered <1.1 mcm ([3]; Alveoli, in-Line Tube (15 cm), HCQB-g, connection w/o inner channel, 200 mcg): 63.0 | Delivered <1.1 mcm ([3]; Alveoli, in-Line Tube (15 cm), HCQB-h, connection w/ inner channel, 200 mcg): 71.7 | Delivered <1.1 mcm ([3]; Alveoli, in-Line Tube (15 cm), HCQB-h, connection w/o inner channel, 200 mcg): 62.1 | Delivered <1.1 mcm ([3]; Alveoli, in-Line Tube (15 cm), HCQB-i, connection w/inner channel, 200 mcg): 55.0 | Delivered <1.1 mcm ([3]; Alveoli, in-Line Tube (15 cm), HCQB-i, connection w/o inner channel, 200 mcg): 75.7 | Delivered <1.1 mcm ([3]; Alveoli, in-Line Tube (15 cm), HCQB-j, connection w/o inner channel, 200 mcg): 58.1 | Delivered <1.1 mcm ([3]; Alveoli, in-Line Tube (55 cm), HCQB-a, connection w/inner channel, 200 mcg): 38.5 | Delivered <1.1 mcm ([3]; Alveoli, in-Line Tube (55 cm), HCQB-b, connection w/inner channel, 200 mcg): 53.8 | Delivered <1.1 mcm ([3]; Alveoli, in-Line Tube (55 cm), HCQB-c, connection w/inner channel, Ave, 200 mcg): 75.8 | Delivered <1.1 mcm ([3]; Alveoli, in-Line Tube (55 cm), HCQB-d, connection w/inner channel, 200 mcg): 52.8 | Delivered <1.1 mcm ([3]; Alveoli, in-Line Tube (55 cm), HCQB-f, connection w/inner channel, Ave, 200 mcg): 69.4 | Delivered <1.1 mcm ([3]; Alveoli, in-Line Tube (55 cm), HCQB-j, connection w/ inner channel, 200 mcg): 60.5 | Delivery Rate ([3]; Plate 3~5, <4.7 mcm, in-Line Tube (15 cm), HCQB-g, connection w/inner channel, 200 mcg): 30.5% | Delivery Rate ([3]; Plate 3~5, <4.7 mcm, in-Line Tube (15 cm), HCQB-h, connection w/inner channel, 200 mcg): 25.8% | Delivery Rate ([3]; Plate 3~5, <4.7 mcm, in-Line Tube (15 cm), HCQB-i, connection w/inner channel, 200 mcg): 22.8% | Delivery Rate ([3]; Plate 3~5, <4.7 mcm, in-Line Tube (55 cm), HCQB-a, connection w/inner channel, 200 mcg): 13.3% | Delivery Rate ([3]; Plate 3~5, <4.7 mcm, in-Line Tube (55 cm), HCQB-b, connection w/inner channel, 200 mcg): 21.3% | Delivery Rate ([3]; Plate 3~5, <4.7 mcm, in-Line Tube (55 cm), HCQB-c, connection w/inner channel, 200 mcg): 29.0% | Delivery Rate ([3]; Plate 3~5, <4.7 mcm, in-Line Tube (55 cm), HCQB-d, connection w/inner channel, 200 mcg): 23.3% | Delivery Rate ([3]; Plate 3~5, <4.7 mcm, in-Line Tube (55 cm), HCQB-e, connection w/inner channel, 200 mcg): 29.0% | Delivery Rate ([3]; Plate 3~5, <4.7 mcm, in-Line Tube (55 cm), HCQB-f, connection w/inner channel, 200 mcg): 28.3% | Delivery Rate ([3]; Plate 3~5, <4.7 mcm, in-Line Tube (55 cm), HCQB-j, connection w/inner channel, 200 mcg): 20.0% | Delivered <4.7 mcm ([3]; in-Line Tube (15 cm), HCQB-g, connection w/inner channel, 200 mcg): 60.9 | Delivered <4.7 mcm ([3]; in-Line Tube (15 cm), HCQB-h, connection w/inner channel, 200 mcg): 51.6 | Delivered <4.7 mcm ([3]; in-Line Tube (15 cm), HCQB-i, connection w/inner channel, 200 mcg): 45.5 | Delivered <4.7 mcm ([3]; in-Line Tube (55 cm), HCQB-a, connection w/inner channel, 200 mcg): 26.5 | Delivered <4.7 mcm ([3]; in-Line Tube (55 cm), HCQB-b, connection w/inner channel, 200 mcg): 42.6 | Delivered <4.7 mcm ([3]; in-Line Tube (55 cm), HCQB-c, connection w/inner channel, 200 mcg): 57.9 | Delivered <4.7 mcm ([3]; in-Line Tube (55 cm), HCQB-d, connection w/inner channel, 200 mcg): 46.6 | Delivered <4.7 mcm ([3]; in-Line Tube (55 cm), HCQB-e, connection w/inner channel, 200 mcg): 57.9 | Delivered <4.7 mcm ([3]; in-Line Tube (55 cm), HCQB-f, connection w/inner channel, 200 mcg): 56.5 | Delivered <4.7 mcm ([3]; in-Line Tube (55 cm), HCQB-j, connection w/inner channel, 200 mcg): 39.9 | mean HCQ particle size [4]: 3.2 μm | appearance of mice during and after treatment [5]: appeared healthy, with no signs of distress
